Experimental data published in ChEMBL document CHEMBL4376820, “Homodimeric Tobramycin Adjuvant Repurposes Novobiocin as an Effective Antibacterial Agent against Gram-Negative Bacteria” (J Med Chem, 2019).
In brackets after ≈: the same amount, converted by molar mass. Activity calls are given as the source filed them. No cut-off for these calls is given here.

How the values were obtained:
Klebsiella pneumoniae = assay: Bacteriostatic activity against Klebsiella pneumoniae 116381 at 50.4 uM in LB media after 24 hrs by time-kill assay; format: functional
Staphylococcus aureus = assay: Antibacterial activity against methicillin-resistant Staphylococcus aureus ATCC 33592; format: functional
[1] = test system: Staphylococcus epidermidis; assay: Antibacterial activity against methicillin-resistant Staphylococcus epidermidis 61589; format: functional
Enterococcus faecium = assay: Antibacterial activity against Enterococcus faecium ATCC 27270; format: functional
Pseudomonas aeruginosa [2] = assay: Bacteriostatic activity against Pseudomonas aeruginosa PAO1 at 50.4 uM in LB media after 24 hrs by time-kill assay; format: functional, organism-based
Acinetobacter baumannii [3] = assay: Bacteriostatic activity against Acinetobacter baumannii ATCC 17978 at 50.4 uM in LB media after 24 hrs by time-kill assay; format: functional, organism-based
Escherichia coli = assay: Bactericidal activity against Escherichia coli ATCC […] at 50.4 uM in LB media after 24 hrs by time-kill assay; format: functional, organism-based
Acinetobacter baumannii [4] = assay: Antibacterial activity against wild type Acinetobacter baumannii ATCC 17978 assessed as resistant development at sub-MIC measured after 3 days of passaging by microbroth dilution method relative to control; format: functional
Acinetobacter baumannii [5] = assay: Antibacterial activity against wild type Acinetobacter baumannii ATCC 17978 assessed as resistant development at sub-MIC measured after 5 days of passaging by microbroth dilution method relative to control; format: functional
Acinetobacter baumannii [6] = assay: Antibacterial activity against novobiocin-resistant Acinetobacter baumannii ATCC 17978 mutant generated from seven serial passages by checkerboard assay; format: functional
Acinetobacter baumannii [7] = assay: Antibacterial activity against colistin-resistant Acinetobacter baumannii ATCC 17978 mutant generated from seven serial passages by checkerboard assay; format: functional
Acinetobacter baumannii [8] = assay: Antibacterial activity against novobiocin and test compound-resistant Acinetobacter baumannii ATCC 17978 mutant generated from seven serial passages in presence of novobiocin by checkerboard assay; format: functional
[9] = Toxicity in Galleria mellonella larvae MDR Acinetobacter baumannii isolate assessed as mortality at 100 mg/kg measured after 24 hrs relative to control; format: ADME, organism-based; conditions: in vivo, read-out: Activity
Acinetobacter baumannii [10] = assay: Antibacterial activity against wild type Acinetobacter baumannii ATCC 17978 by checkerboard assay; format: functional
Pseudomonas aeruginosa [11] = assay: Synergistic antibacterial activity against wild type Pseudomonas aeruginosa PAO1 assessed as potentiation of cefotaxime-induced antibacterial effect incubated for 18 hrs by checkerboard assay; format: functional, organism-based
Pseudomonas aeruginosa [12] = assay: Synergistic antibacterial activity against wild type Pseudomonas aeruginosa PAO1 assessed as potentiation of minocycline-induced antibacterial effect incubated for 18 hrs by checkerboard assay; format: functional, organism-based
Pseudomonas aeruginosa [13] = assay: Synergistic antibacterial activity against wild type Pseudomonas aeruginosa PAO1 assessed as potentiation of meropenem-induced antibacterial effect incubated for 18 hrs by checkerboard assay; format: functional, organism-based
HEK293 = assay: Cytotoxicity against human HEK293 cells at 50 uM incubated for 48 hrs by PrestoBlue dye based fluorescence assay; format: cell-based; conditions: hek293, 48 h
HepG2 = assay: Cytotoxicity against human HepG2 cells at 50 uM incubated for 48 hrs by PrestoBlue dye based fluorescence assay; format: cell-based; conditions: hepg2, 48 h
Erythrocyte = assay: Hemolytic activity against porcine erythrocytes assessed as hemoglobin release at 1024 ug/ml incubated for 1 hr by microplate reader analysis; format: ADME, cell-based, Sus scrofa; conditions: pig
[14] = Toxicity in Galleria mellonella larvae assessed as survivability at 200 mg/kg measured every 6 hrs for 72 hrs; format: organism-based; conditions: in vivo
Pseudomonas aeruginosa [15] = assay: Synergistic antibacterial activity against wild type Pseudomonas aeruginosa PAO1 assessed as potentiation of rifampicin-induced antibacterial effect incubated for 18 hrs by checkerboard assay; format: functional, organism-based
Pseudomonas aeruginosa [16] = assay: Synergistic antibacterial activity against wild type Pseudomonas aeruginosa PAO1 assessed as potentiation of doxycycline-induced antibacterial effect incubated for 18 hrs by checkerboard assay; format: functional, organism-based
Pseudomonas aeruginosa [17] = assay: Synergistic antibacterial activity against wild type Pseudomonas aeruginosa PAO1 assessed as potentiation of linezolid-induced antibacterial effect incubated for 18 hrs by checkerboard assay; format: functional, organism-based
Pseudomonas aeruginosa [18] = assay: Synergistic antibacterial activity against wild type Pseudomonas aeruginosa PAO1 assessed as potentiation of moxifloxacin-induced antibacterial effect incubated for 18 hrs by checkerboard assay; format: functional, organism-based
Pseudomonas aeruginosa [19] = assay: Synergistic antibacterial activity against wild type Pseudomonas aeruginosa PAO1 assessed as potentiation of ciprofloxacin-induced antibacterial effect incubated for 18 hrs by checkerboard assay; format: functional, organism-based
Pseudomonas aeruginosa [20] = assay: Synergistic antibacterial activity against wild type Pseudomonas aeruginosa PAO1 assessed as potentiation of levofloxacin-induced antibacterial effect incubated for 18 hrs by checkerboard assay; format: functional, organism-based
Pseudomonas aeruginosa [21] = assay: Synergistic antibacterial activity against wild type Pseudomonas aeruginosa PAO1 assessed as potentiation of aztreonam-induced antibacterial effect incubated for 18 hrs by checkerboard assay; format: functional, organism-based
Pseudomonas aeruginosa [22] = assay: Synergistic antibacterial activity against wild type Pseudomonas aeruginosa PAO1 assessed as potentiation of ceftazidime-induced antibacterial effect incubated for 18 hrs by checkerboard assay; format: functional, organism-based
Pseudomonas aeruginosa [23] = assay: Synergistic antibacterial activity against wild type Pseudomonas aeruginosa PAO1 assessed as potentiation of fosfomycin-induced antibacterial effect incubated for 18 hrs by checkerboard assay; format: functional, organism-based
Pseudomonas aeruginosa [24] = assay: Synergistic antibacterial activity against wild type Pseudomonas aeruginosa PAO1 assessed as potentiation of chloramphenicol-induced antibacterial effect incubated for 18 hrs by checkerboard assay; format: functional, organism-based
Pseudomonas aeruginosa [25] = assay: Synergistic antibacterial activity against wild type Pseudomonas aeruginosa PAO1 assessed as potentiation of clindamycin-induced antibacterial effect incubated for 18 hrs by checkerboard assay; format: functional, organism-based
Pseudomonas aeruginosa [26] = assay: Synergistic antibacterial activity against wild type Pseudomonas aeruginosa PAO1 assessed as potentiation of piperacillin-induced antibacterial effect incubated for 18 hrs by checkerboard assay; format: functional, organism-based
Pseudomonas aeruginosa [27] = assay: Synergistic antibacterial activity against wild type Pseudomonas aeruginosa PAO1 assessed as potentiation of novobiocin-induced antibacterial effect incubated for 18 hrs by checkerboard assay; format: functional, organism-based
Pseudomonas aeruginosa [28] = assay: Synergistic antibacterial activity against wild type Pseudomonas aeruginosa PAO1 assessed as potentiation of tobramycin-induced antibacterial effect at <= 7.1 uM incubated for 18 hrs by checkerboard assay; format: functional, organism-based
Pseudomonas aeruginosa [29] = assay: Synergistic antibacterial activity against wild type Pseudomonas aeruginosa PAO1 assessed as potentiation of vancomycin-induced antibacterial effect at <=7.1 uM incubated for 18 hrs by checkerboard assay; format: functional, organism-based
Pseudomonas aeruginosa [30] = assay: Synergistic antibacterial activity against wild type Pseudomonas aeruginosa PAO1 assessed as potentiation of colistin-induced antibacterial effect at <=7.1 uM incubated for 18 hrs by checkerboard assay; format: functional, organism-based
Pseudomonas aeruginosa [31] = assay: Antibacterial activity against wild type Pseudomonas aeruginosa PAO1 assessed as fractional inhibitory concentration index incubated for 18 hrs in presence of tobramycin by checkerboard assay; format: functional
Pseudomonas aeruginosa [32] = assay: Antibacterial activity against wild type Pseudomonas aeruginosa PAO1 assessed as fractional inhibitory concentration index incubated for 18 hrs in presence of colistin by checkerboard assay; format: functional
Pseudomonas aeruginosa [33] = assay: Synergistic antibacterial activity against wild type Pseudomonas aeruginosa PAO1 assessed as potentiation of rifampicin-induced antibacterial effect incubated for 18 hrs by checkerboard assay relative to rifampicin alone; format: functional
Pseudomonas aeruginosa [34] = assay: Synergistic antibacterial activity against wild type Pseudomonas aeruginosa PAO1 assessed as potentiation of minocycline-induced antibacterial effect incubated for 18 hrs by checkerboard assay relative to minocycline alone; format: functional
Pseudomonas aeruginosa [35] = assay: Synergistic antibacterial activity against wild type Pseudomonas aeruginosa PAO1 assessed as potentiation of cefotaxime-induced antibacterial effect incubated for 18 hrs by checkerboard assay relative to cefotaxime alone; format: functional
Pseudomonas aeruginosa [36] = assay: Synergistic antibacterial activity against wild type Pseudomonas aeruginosa PAO1 assessed as potentiation of doxycycline-induced antibacterial effect incubated for 18 hrs by checkerboard assay relative to doxycycline alone; format: functional
Pseudomonas aeruginosa [37] = assay: Synergistic antibacterial activity against wild type Pseudomonas aeruginosa PAO1 assessed as potentiation of linezolid-induced antibacterial effect incubated for 18 hrs by checkerboard assay relative to linezolid alone; format: functional
Pseudomonas aeruginosa [38] = assay: Synergistic antibacterial activity against wild type Pseudomonas aeruginosa PAO1 assessed as potentiation of meropenem-induced antibacterial effect incubated for 18 hrs by checkerboard assay relative to meropenem alone; format: functional
Pseudomonas aeruginosa [39] = assay: Synergistic antibacterial activity against wild type Pseudomonas aeruginosa PAO1 assessed as potentiation of moxifloxacin-induced antibacterial effect incubated for 18 hrs by checkerboard assay relative to moxifloxacin alone; format: functional
Pseudomonas aeruginosa [40] = assay: Synergistic antibacterial activity against wild type Pseudomonas aeruginosa PAO1 assessed as potentiation of ciprofloxacin-induced antibacterial effect incubated for 18 hrs by checkerboard assay relative to ciprofloxacin alone; format: functional
Pseudomonas aeruginosa [41] = assay: Synergistic antibacterial activity against wild type Pseudomonas aeruginosa PAO1 assessed as potentiation of levofloxacin-induced antibacterial effect incubated for 18 hrs by checkerboard assay relative to levofloxacin alone; format: functional
Pseudomonas aeruginosa [42] = assay: Synergistic antibacterial activity against wild type Pseudomonas aeruginosa PAO1 assessed as potentiation of aztreonam-induced antibacterial effect incubated for 18 hrs by checkerboard assay relative to aztreonam alone; format: functional
Pseudomonas aeruginosa [43] = assay: Synergistic antibacterial activity against wild type Pseudomonas aeruginosa PAO1 assessed as potentiation of ceftazidime-induced antibacterial effect incubated for 18 hrs by checkerboard assay relative to ceftazidime alone; format: functional
Pseudomonas aeruginosa [44] = assay: Synergistic antibacterial activity against wild type Pseudomonas aeruginosa PAO1 assessed as potentiation of fosfomycin-induced antibacterial effect incubated for 18 hrs by checkerboard assay relative to fosfomycin alone; format: functional
Pseudomonas aeruginosa [45] = assay: Synergistic antibacterial activity against wild type Pseudomonas aeruginosa PAO1 assessed as potentiation of chloramphenicol-induced antibacterial effect incubated for 18 hrs by checkerboard assay relative to chloramphenicol alone; format: functional
Pseudomonas aeruginosa [46] = assay: Synergistic antibacterial activity against wild type Pseudomonas aeruginosa PAO1 assessed as potentiation of clindamycin-induced antibacterial effect incubated for 18 hrs by checkerboard assay relative to clindamycin alone; format: functional
Pseudomonas aeruginosa [47] = assay: Synergistic antibacterial activity against wild type Pseudomonas aeruginosa PAO1 assessed as potentiation of novobiocin-induced antibacterial effect incubated for 18 hrs by checkerboard assay relative to novobiocin alone; format: functional
Pseudomonas aeruginosa [48] = assay: Synergistic antibacterial activity against wild type Pseudomonas aeruginosa PAO1 assessed as potentiation of piperacillin-induced antibacterial effect incubated for 18 hrs by checkerboard assay relative to piperacillin alone; format: functional

CO[C@@H]1[C@@H](OC(N)=O)[C@@H](O)[C@H](Oc2ccc3c(O)c(NC(=O)c4ccc(O)c(CC=C(C)C)c4)c(=O)oc3c2C)OC1(C)C [NOVOBIOCIN]
Activity (Klebsiella pneumoniae): -1.87 CFU/ml
MIC (Staphylococcus aureus): 0.125 µg/mL (≈ 0.204 µM)
MIC [1]: 0.0625 µg/mL (≈ 0.102 µM)
MIC (Enterococcus faecium): 2 µg/mL (≈ 3.26 µM)
Activity (Pseudomonas aeruginosa [2]): Active
Activity (Acinetobacter baumannii [3]): Active
Activity (Escherichia coli): Active
fold change (FC) (Acinetobacter baumannii [4]): 64
fold change (FC) (Acinetobacter baumannii [5]): 256
MIC (Acinetobacter baumannii [6]): 2050 µg/mL
MIC (Acinetobacter baumannii [7]): < 0.031 µg/mL
MIC (Acinetobacter baumannii [8]): 128 µg/mL
mortality at 24 h [9]: 100%
MIC (Acinetobacter baumannii [10]): 16 µg/mL

NC[C@H]1O[C@H](O[C@H]2[C@H](OCCCCCCCCn3cc(CCCCO[C@@H]4[C@@H](O[C@H]5O[C@H](CO)[C@@H](O)[C@H](N)[C@H]5O)[C@H](N)C[C@H](N)[C@H]4O[C@H]4O[C@H](CN)[C@@H](O)C[C@H]4N)nn3)[C@@H](O[C@H]3O[C@H](CO)[C@@H](O)[C@H](N)[C@H]3O)[C@H](N)C[C@@H]2N)[C@H](N)C[C@@H]1O.O=C(O)C(F)(F)F.O=C(O)C(F)(F)F.O=C(O)C(F)(F)F.O=C(O)C(F)(F)F.O=C(O)C(F)(F)F.O=C(O)C(F)(F)F.O=C(O)C(F)(F)F.O=C(O)C(F)(F)F.O=C(O)C(F)(F)F.O=C(O)C(F)(F)F
Activity (Pseudomonas aeruginosa [11]): Dose-dependent effect
Activity (Pseudomonas aeruginosa [12]): Dose-dependent effect
Activity (Pseudomonas aeruginosa [13]): Dose-dependent effect
Activity (HEK293): Non-Toxic
Activity (HepG2): Non-Toxic
Activity (Erythrocyte): Non-Toxic
Activity [14]: Non-Toxic
Activity (Pseudomonas aeruginosa [15]): Dose-dependent effect
Activity (Pseudomonas aeruginosa [16]): Dose-dependent effect
Activity (Pseudomonas aeruginosa [17]): Dose-dependent effect
Activity (Pseudomonas aeruginosa [18]): Dose-dependent effect
Activity (Pseudomonas aeruginosa [19]): Dose-dependent effect
Activity (Pseudomonas aeruginosa [20]): Dose-dependent effect
Activity (Pseudomonas aeruginosa [21]): Dose-dependent effect
Activity (Pseudomonas aeruginosa [22]): Dose-dependent effect
Activity (Pseudomonas aeruginosa [23]): Dose-dependent effect
Activity (Pseudomonas aeruginosa [24]): Dose-dependent effect
Activity (Pseudomonas aeruginosa [25]): Dose-dependent effect
Activity (Pseudomonas aeruginosa [26]): Dose-dependent effect
Activity (Pseudomonas aeruginosa [27]): Dose-dependent effect
Activity (Pseudomonas aeruginosa [28]): inactive
Activity (Pseudomonas aeruginosa [29]): inactive
Activity (Pseudomonas aeruginosa [30]): inactive
fractional inhibitory concentration index (FICI) (Pseudomonas aeruginosa [31]): >4
fractional inhibitory concentration index (FICI) (Pseudomonas aeruginosa [32]): >4
fold change (FC) (Pseudomonas aeruginosa [33]): 4 - 128
fold change (FC) (Pseudomonas aeruginosa [34]): 4 - 128
fold change (FC) (Pseudomonas aeruginosa [35]): 4 - 128
fold change (FC) (Pseudomonas aeruginosa [36]): 4 - 128
fold change (FC) (Pseudomonas aeruginosa [37]): 4 - 128
fold change (FC) (Pseudomonas aeruginosa [38]): 4 - 128
fold change (FC) (Pseudomonas aeruginosa [39]): 4 - 128
fold change (FC) (Pseudomonas aeruginosa [40]): 4 - 128
fold change (FC) (Pseudomonas aeruginosa [41]): 4 - 128
fold change (FC) (Pseudomonas aeruginosa [42]): 4 - 128
fold change (FC) (Pseudomonas aeruginosa [43]): 4 - 128
fold change (FC) (Pseudomonas aeruginosa [44]): 4 - 128
fold change (FC) (Pseudomonas aeruginosa [45]): 4 - 128
fold change (FC) (Pseudomonas aeruginosa [46]): 4 - 128
fold change (FC) (Pseudomonas aeruginosa [47]): 4 - 128
fold change (FC) (Pseudomonas aeruginosa [48]): 4 - 128
